Experimental data published in article PMC8565742 (PLoS Neglected Tropical Diseases, 2021).

Key:
[1] = test system: endogenous receptors; conditions: confocal Ca2+ imaging; cited from earlier work
[2] = test system: untransfected HEK293 cells; assay: Counterscreen, antagonist mode, Ca2+ signal in untransfected HEK cells; type: cell-based; conditions: S3 Table, counterscreen titration
Experimental: (§1) HEK cells were transfected with cDNA (400μg/ml DNA) encoding Sm.TRPMPZQ using a Maxcyte STX electroporation system and incubated overnight at 37°C. This system is uniquely capabable of large scale transfections providing one batch of cells ready for large scale HTS [30]. Briefly, the HEK cells were resuspended at 10^8/ml in Maxcyte electroporation buffer. Plasmid DNA was added to the cells in buffer to achieve a concentration of 400 μg/ml from a stock of 5mg/ml (in TE buffer). This mixture was loaded into the appropriate cassette, inserted into the machine, and cells electroporated. Cells were then frozen to provide a single supply of transfected cells for all subsequent assays. On the day of the assays, cells were thawed in a 37°C waterbath, and resuspended in DMEM + 10% FBS and counted. The cells were pelleted by centrifugation at 170xg for 5 minutes. The media was aspirated, and the remaining pellet was resuspended in 1x HBSS with 20 mM HEPES and 1% DMSO to achieve 1.33x10^6cells/ml. This cell suspension was then dispensed at 3 μl/well to the 1536 well plates (Greiner Bio One part 789072) at a density of 4,000 cells/well. Measurements of fluorescence intensity (λex = 470 nm, λem = 535 nm) were made using a FLIPR (Molecular Devices FLIPR Tetra). A read of basal fluorescence values was made (5s) prior to addition of compounds or controls (30 nl). In both ‘agonist’ and ‘antagonist mode’, the total assay volume was 6μl (1% DMSO). […] Ligand performance was categorized using an algorithm based on the activity of the entire dataset to define a ‘hit-cutoff’ parameter for both agonist-mode and antagonist-mode screening. Any compound with greater percent activation than this cutoff was assigned as ‘active’ prior to titration and counter-screening. Titration assays were executed using the same reagents, protocols and detection systems, done as 10-point concentration-response curves, performed in triplicate. Counter-screening was performed using untransfected HEK293 cells for comparison with results testing the same compounds effect on cells expressing Sm.TRPMPZQ, with ATP used as the positive control. For each compound, activity was plotted against compound concentration and data were fitted with a sigmoidal function. In order to be considered a hit at this stage a compound must achieve a EC50<5 μM for agonists and IC50 <5 μM for antagonists. All compounds selected for titration were subjected to LC-MS analysis to confirm mass and sample purity. ChemAxon (https://www.chemaxon.com) academic licensing was provided for the use of Instant JChem (ver. 15.10.12.0) to perform compound mining of the libraries utilized in this effort.

[3] = molecular target: T1, Sm.TRPMPZQ (Schistosoma mansoni, UniProt A0A5K4F0X5); assay: cell-based; conditions: S3 Table, titration
Experimental: as §1, with “Any compound with greater percent activation than this cutoff was assigned as ‘active’ prior to titration and counter-screening.” left out, “In order to be considered a hit at this stage a compound must achieve a EC50<5 μM for agonists and IC50 <5 μM for antagonists. All compounds selected for titration were subjected to LC-MS analysis to confirm mass and sample purity.” left out

[4] = test system: untransfected HEK293 cells; assay: Counterscreen, agonist mode, Ca2+ signal in untransfected HEK cells; type: cell-based; conditions: S3 Table, counterscreen titration; for EC50: unit inferred, read-out: HEK AG Final EC50
Experimental: as §1

[5] = molecular target: T1, Sm.TRPMPZQ; assay: cell-based; conditions: S3 Table, titration; remark: listed apart in the source
Experimental: as §1, with “This cell suspension was then dispensed at 3 μl/well to the 1536 well plates (Greiner Bio One part 789072) at a density of 4,000 cells/well. Measurements of fluorescence intensity (λex = 470 nm, λem = 535 nm) were made using a FLIPR (Molecular Devices FLIPR Tetra).” left out, “Any compound with greater percent activation than this cutoff was assigned as ‘active’ prior to titration and counter-screening.” left out, “function.” for “function. In order to be considered a hit at this stage a compound must achieve a EC50<5 μM for agonists and IC50 <5 μM for antagonists. All compounds selected for titration were subjected to LC-MS analysis to confirm mass and sample purity. ChemAxon (https://www.chemaxon.com) academic licensing was provided for the use of Instant JChem (ver. 15.10.12.0) to perform compound mining of the libraries utilized in this effort.”

[6] = molecular target: T1, Sm.TRPMPZQ; conditions: human TRPM8 agonists; cited from earlier work

T1 sequence (A0A5K4F0X5 entry or part of it): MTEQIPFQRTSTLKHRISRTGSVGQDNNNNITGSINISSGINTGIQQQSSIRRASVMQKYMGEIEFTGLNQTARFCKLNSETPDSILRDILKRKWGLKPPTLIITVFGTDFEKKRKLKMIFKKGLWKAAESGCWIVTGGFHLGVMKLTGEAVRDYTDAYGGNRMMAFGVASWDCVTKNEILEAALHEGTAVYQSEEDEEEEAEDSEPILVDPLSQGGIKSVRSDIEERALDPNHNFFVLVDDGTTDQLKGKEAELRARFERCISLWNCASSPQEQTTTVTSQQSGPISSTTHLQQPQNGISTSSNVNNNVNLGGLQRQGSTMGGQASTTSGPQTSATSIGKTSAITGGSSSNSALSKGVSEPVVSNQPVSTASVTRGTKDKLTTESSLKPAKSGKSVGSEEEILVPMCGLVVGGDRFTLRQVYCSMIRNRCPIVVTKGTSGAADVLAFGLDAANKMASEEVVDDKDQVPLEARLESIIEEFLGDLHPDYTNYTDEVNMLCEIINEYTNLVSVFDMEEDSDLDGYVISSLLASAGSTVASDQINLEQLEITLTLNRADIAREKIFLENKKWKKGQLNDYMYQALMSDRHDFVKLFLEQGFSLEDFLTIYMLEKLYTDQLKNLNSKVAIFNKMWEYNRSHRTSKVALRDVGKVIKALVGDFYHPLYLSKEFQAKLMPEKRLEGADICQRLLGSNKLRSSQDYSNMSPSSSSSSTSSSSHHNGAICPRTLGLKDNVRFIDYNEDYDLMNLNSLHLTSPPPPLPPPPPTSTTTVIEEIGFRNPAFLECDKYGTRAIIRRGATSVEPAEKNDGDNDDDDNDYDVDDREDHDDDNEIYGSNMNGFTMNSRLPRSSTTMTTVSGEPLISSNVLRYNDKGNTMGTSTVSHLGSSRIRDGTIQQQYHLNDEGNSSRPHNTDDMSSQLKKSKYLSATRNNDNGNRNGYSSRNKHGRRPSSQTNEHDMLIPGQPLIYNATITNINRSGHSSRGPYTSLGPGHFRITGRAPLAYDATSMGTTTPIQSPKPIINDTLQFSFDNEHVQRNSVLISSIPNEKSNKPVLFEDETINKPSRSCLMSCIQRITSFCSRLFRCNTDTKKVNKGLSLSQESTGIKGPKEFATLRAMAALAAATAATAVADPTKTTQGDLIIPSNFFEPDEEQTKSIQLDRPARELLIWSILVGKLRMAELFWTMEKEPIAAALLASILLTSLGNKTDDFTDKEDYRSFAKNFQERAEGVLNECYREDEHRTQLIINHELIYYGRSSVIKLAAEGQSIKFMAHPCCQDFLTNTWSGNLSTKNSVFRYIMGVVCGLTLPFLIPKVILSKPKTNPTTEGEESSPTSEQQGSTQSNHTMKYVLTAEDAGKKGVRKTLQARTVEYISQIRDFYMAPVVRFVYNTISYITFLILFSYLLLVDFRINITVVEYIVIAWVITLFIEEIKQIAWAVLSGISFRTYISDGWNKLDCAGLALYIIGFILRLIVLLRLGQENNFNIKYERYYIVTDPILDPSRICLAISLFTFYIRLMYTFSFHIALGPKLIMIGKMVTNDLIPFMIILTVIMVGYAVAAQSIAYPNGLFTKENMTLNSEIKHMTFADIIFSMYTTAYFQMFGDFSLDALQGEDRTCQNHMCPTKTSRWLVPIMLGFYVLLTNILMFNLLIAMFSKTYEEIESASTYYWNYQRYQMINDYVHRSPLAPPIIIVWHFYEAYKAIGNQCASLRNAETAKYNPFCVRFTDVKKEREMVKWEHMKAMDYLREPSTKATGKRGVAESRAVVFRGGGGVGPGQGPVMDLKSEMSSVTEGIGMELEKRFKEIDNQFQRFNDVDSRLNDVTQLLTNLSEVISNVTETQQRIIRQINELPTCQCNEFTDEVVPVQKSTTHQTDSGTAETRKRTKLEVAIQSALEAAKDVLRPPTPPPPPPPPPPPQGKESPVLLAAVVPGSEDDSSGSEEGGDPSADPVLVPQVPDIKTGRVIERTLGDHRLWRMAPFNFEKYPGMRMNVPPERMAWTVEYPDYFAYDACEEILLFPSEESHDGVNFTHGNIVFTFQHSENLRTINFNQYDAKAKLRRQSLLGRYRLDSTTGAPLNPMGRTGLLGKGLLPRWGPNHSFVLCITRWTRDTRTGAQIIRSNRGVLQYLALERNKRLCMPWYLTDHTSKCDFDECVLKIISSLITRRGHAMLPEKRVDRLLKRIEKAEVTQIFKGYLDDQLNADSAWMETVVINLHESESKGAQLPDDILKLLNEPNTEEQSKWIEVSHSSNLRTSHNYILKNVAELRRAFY

Compound	ΔF/F, amplitude of Ca2+ transient [1]	HEK ANT Averaged Max % Response [2] [%]	Sm.TRPMPZQ AG Averaged Max % Response [3] [%]	HEK AG Averaged Max % Response [4] [%]	EC50 [4] [µM]	Sm.TRPMPZQ ANT Averaged Max % Response [5] [%]	activation of Sm.TRPMPZQ [6]
Nc1ncnc2c1ncn2[C@@H]1O[C@H](COP(=O)(O)OP(=O)(O)OP(=O)(O)O)[C@@H](O)[C@H]1O [ATP]	4.5±1.5						
Cc1cc(C)n(-c2ccc(-n3cccc3/C=C(/C#N)S(=O)(=O)c3ccccc3)cc2)n1 [SR-02000000290-3]		37.5091	6.499	13.2678	> 12.4	71.9269	
FC(F)(F)c1ccc2c(c1)nc(SCc1ccccc1)n2CCc1ccccc1 [SR-07000003001-2]		21.2984	3.104	8.753	> 12.4	61.2456	
O=C1NC(c2cccc([N+](=O)[O-])c2)=CCN1c1ccccc1O [icilin]							not activated
CC1CCC(C(C)C)C(O)C1 (stereo not shown) [menthol]							not activated
